Consider seven molecules from US10071108B2, “Methods and pharmaceutical compositions for the treatment of hepatitis b virus infection” (INSERM (INSTITUT NATIONAL DE LA SANTÉ ET DE LA RECHERCHE …, priority 2013, dated 2018).

Experiment [1] has as its system HBV. As to the kind of experiment: Secretion of HBsAg in supernatant of HBV infected HepaRG cells. It counts as cell-based, hepatitis B virus. Conditions: for effect on HBsAg secretion in supernatant: treated days 4, 7 and 11 post infection, supernatant day 14. An excerpt:
Differentiated HepaRG cells were infected with HBV (100 geq/cell for 24 hr), then treated 3 successive times (days 4, 7 and 11 post infection) with FXR modulators at indicated concentrations in μM. Cell supernatants were collected 14 days post infection for quantification of HBsAg (Architec Abbott).
(§1) The HepaRG line derived from a human cellularhepato carcinoma can differentiate and regain many phenotypic traits of hepatocytes after 4 weeks of culture under defined conditions (Hantz O. et al., 2009, J Gen Virol, 90:127-135). After differentiation, these cells are susceptible to infection at high MOI of HBV virions produced by HepG2.2.15 line. Under these conditions viral production can be observed in the second week post infection. This system allows the study of most steps of the viral replication cycle, including penetration into the cell, translocation of the viral genome into the nucleus, the repair and synthesis of the cccDNA, transcription of pregenomic and viral mRNAs as well as later stages of the replication cycle with the synthesis of viral proteins, the assembly and secretion of infectious virions and the secretion of the viral proteins HBs and HBe.
(§2) The HepaRG system thus allows the monitoring of the secretion of HBsAg and HBeAg and virion incorporated DNA into the cell culture supernatant after infection with HBV infectious virion stocks prepared from the HepG2.2.15 cell line. This system also allows the monitoring of the synthesis of pregenomic and viral mRNAs as well as cytoplasmic replication intermediates and cccDNA. The effects of molecules on cell physiology and cell differentiated functions were explored, including the quantification of hepatic markers such as albumin and apolipoprotein B. The effects of the compounds on the cellular bile acid pathway were monitored by analysis and quantification of the FXR mRNA as well as the SHP and apoA1 encoding mRNAs the expression of which is under the control of FXR

Experiment [2] relates to HBV. Put plainly: Expression of HBV core protein (HBc) in infected HepaRG cells, immunofluorescence. The class given is cell-based, hepatitis B virus. Conditions: fixed day 14 post infection, anti-HBc immunofluorescence. The procedure:
Differentiated HepaRG cells grown on coverslips were infected and treated as described in FIG. 1 legend (n=3±SEM). Cells were fixed on day 14 post infection and immunocytochemistry using anti-HBc antibody was carried out.

For experiment [3], the system named is HBV. Put plainly: Secretion of HBeAg in supernatant of HBV infected HepaRG cells. The following applies: for effect on HBeAg secretion in supernatant: HBV infected HepaRG, treated days 4, 7 and 11 post infection, supernatant day 14. It counts as cell-based, hepatitis B virus.
Excerpt: (§3) Cell supernatants were collected 14 days post infection for quantification of HBsAg, HBeAg (Architec Abbott) or HBV DNA by quantitative PCR using rcDNA primers (n=3±SEM). FIG. 2A—Both FXR agonists, GW4064 and 6ECDCA, inhibit the secretion of HBsAg and HBeAg in the supernatant in a dose-dependent manner whereas UDCA and 052EDL133 have no effect on the antigen secretion. FIG. 2B—Both FXR agonists, GW4064 and 6ECDCA, inhibit the secretion of infectious HBV DNA positive viral particles in the supernatant in a dose-dependent manner. […] FIG. 2C—The FXR agonist PXL007 represses HBsAg, HBeAg and HBV DNA in a dose-dependent manner.
as §1, §2

Experiment [4] has as its system HBV. As to the kind of experiment: Secretion of HBV DNA in supernatant of HBV infected HepaRG cells (quantitative PCR). Conditions: for effect on secretion of HBV DNA (virions) in supernatant: supernatant day 14, quantitative PCR. The class given is cell-based, hepatitis B virus.
Excerpt: as §3
Differentiated HepaRG cells were infected and treated as described in FIG. 1 legend. Cell supernatants were collected 14 days post infection. (FIG. 8A) Quantification of HBsAg and HBeAg secretion. (FIG. 8B) Quantification of secreted infectious particles by DNA extraction and quantification by qPCR.
as §1, §2

Experiment [5] deals with T1, FXR (Homo sapiens, UniProt Q96RI1).
T1 construct: host or cells: Huh-7
T1 sequence (Q96RI1 1-486): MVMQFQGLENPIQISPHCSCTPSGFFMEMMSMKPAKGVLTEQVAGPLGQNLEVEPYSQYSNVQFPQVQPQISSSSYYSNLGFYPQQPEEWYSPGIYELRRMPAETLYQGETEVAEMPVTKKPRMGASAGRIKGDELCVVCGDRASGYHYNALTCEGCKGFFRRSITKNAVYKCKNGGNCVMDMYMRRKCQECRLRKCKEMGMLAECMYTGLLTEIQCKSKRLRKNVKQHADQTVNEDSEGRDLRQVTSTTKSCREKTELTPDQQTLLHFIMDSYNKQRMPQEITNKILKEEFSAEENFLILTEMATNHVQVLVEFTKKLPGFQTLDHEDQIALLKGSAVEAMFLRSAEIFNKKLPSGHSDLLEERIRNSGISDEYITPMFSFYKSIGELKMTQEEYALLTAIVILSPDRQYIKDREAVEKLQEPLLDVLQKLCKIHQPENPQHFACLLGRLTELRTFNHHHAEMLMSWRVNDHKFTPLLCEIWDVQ
As to the kind of experiment: Reporter gene under control of the HBV Enh2/core promoter region (two FXR response elements) in Huh-7 cell line. Conditions: data not shown. It counts as cell-based. An excerpt: A panel of molecules not previously described and original or reference modulators of FXR activity were first tested on the expression of a reporter gene under the control of the HBV Enh2/core promoter region that contains two FXR response elements in the Huh-7 cell line as described in Ramière C, et al., 2008, J Virol; 82: 10832-10840. Molecules were then classified as FXR agonists or antagonists on the basis respectively of the expression increase or decrease of the reporter gene under the transcription control of FXR. […] Thus some molecules decreased the production of HBsAg in a dose-dependent manner. If the active molecules are classified by their antagonist, agonist or agonist “partial” by the screening test in Huh-7 cell with the reporter gene construct, it appears, against previous odds, that the inhibitory effect on the production of HBsAg grew with the tendency of the molecule to be a potent FXR agonist.

Experiment [6] concerns FXRα. Put plainly: FXR mRNA expression in HBV infected HepaRG cells (qPCR). The following applies: 10 days treatment. The class given is cell-based, human.
Excerpt: (§4) Differentiated HepaRG cells were infected and treated as described in FIG. 1 legend. Cells were lysed and RNA was extracted, then reverse transcribed into cDNA for qPCR. The expression levels of 3 genes of interest were quantified: FXRα, SHP and APOA1, as well as 3 housekeeping genes for normalization (n=3±SEM). FXR agonists, GW4064 and 6ECDCA, inhibit the expression of FXR mRNA in a dose-dependent manner. SHP and APOA1 are two genes under the regulation of FXR; SHP is induced by FXR while APOA1 is repressed. Here, SHP mRNA expression increases with GW4064 and 6ECDCA treatments, while APOA1 mRNA expression decreases.
as §2

The test system of experiment [7] is HBV. As to the kind of experiment: HBV pregenomic/precore mRNA in infected HepaRG cells (qRT-PCR, Northern blot). The class given is cell-based, hepatitis B virus.
Excerpt: Differentiated HepaRG cells were infected and treated as described in FIG. 1 legend. Cells were lysed and RNA was extracted, then either reverse transcribed into cDNA for quantitative PCR (qRT-PCR) (FIG. 4A) or used in Northern Blot experiment (FIG. 4B). The same experiment was repeated and DNA was extracted. Following plasmid-safe DNase treatment, cccDNA expression was quantified by qPCR experiment using specific HBV cccDNA primers and TaqMan probe (n=3±SEM) (FIG. 4C). cccDNA quantification was normalized to the number of βglobin gene. The expression levels of HBV pregenomic gene were quantified, as well as 3 housekeeping genes for normalization (n=3±SEM). […]
as §2, with “This system also allows the monitoring of the synthesis of pregenomic and viral mRNAs as well as cytoplasmic replication intermediates and cccDNA.” left out

The subject of experiment [8] is APOA1. Put plainly: APOA1 mRNA expression in HBV infected HepaRG cells (qPCR). The class given is cell-based, human. Conditions: 10 days treatment.
Excerpt: as §4, §2

In experiment [9] the test system is SHP. As to the kind of experiment: SHP mRNA expression in HBV infected HepaRG cells (qPCR). Conditions: 10 days treatment. The class given is cell-based, human.
Excerpt: as §4, §2

The mark [10] stands for this setting: CsA during infection, then FXR agonist.

Entries after “also recorded” stand apart in the source; their conditions may differ.

Regarding `C[C@H](CCC(=O)O)[C@H]1CC[C@H]2[C@@H]3[C@@H](O)C[C@@H]4C[C@H](O)CC[C@]4(C)[C@H]3CC[C@]12C` [UDCA, ursodesoxycholic acid], the “effect on HBsAg secretion in supernatant” value is “no effect” in experiment [1] (HBV infected HepaRG) and “did not inhibit” in [1] (HBV infected HepaRG, listed as ursodeoxycholate). Besides, in experiment [2], the “expression of HBc in infected cells” value is on record as “do not appear to modify; also recorded: did not significantly modify”. Also, the results for the “effect on HBeAg secretion in supernatant” value in [3] and in [3] (listed as ursodeoxycholate) were “no effect” and “did not inhibit”, respectively. Besides, in experiment [4], the “effect on secretion of HBV DNA (virions) in supernatant” value (“effect on secretion of HBV DNA” for short) is given as “no or limited effect; also recorded: did not modify”.

In the case of `O=C(O)c1cc2c(Br)c(N3CCCN(S(=O)(=O)c4ccccc4Cl)CC3)ccc2o1` [PXL0914, 4-Bromo-5-[4-(2-chloro-benzenesulfonyl)-[1,4]diazepan-1-yl]-benzofuran-2-carboxylic acid], the “classification as FXR agonist or antagonist by reporter gene expression” value (“classification” for short) in experiment [5] is reported as “Partial agonists”. Moreover, the “effect on HBsAg secretion in supernatant” value in experiment [1] (HBV infected HepaRG) is on record as “intermediate profile of inhibition”.

As to `Cc1c(N2CCN(C(=O)c3c(Cl)cccc3Cl)CC2)ccc2oc(C(=O)O)cc12` [PXL0924, 5-[4-(2,6-Dichloro-benzoyl)-piperazin-1-yl]-4-methyl-benzofuran-2-carboxylic acid], the “classification” value in [5] is reported as “Partial agonists”. The “effect on HBsAg secretion in supernatant” value in experiment [1] (HBV infected HepaRG) is recorded as “intermediate profile of inhibition”.

For `CC(C)c1onc(-c2c(Cl)cccc2Cl)c1COc1ccc(/C=C/c2cccc(C(=O)O)c2)c(Cl)c1` [GW4064], the “HBsAg secretion, FXR agonist treatment of cells infected in presence of cyclosporin A” value in [1] (setting [10]) was “further reduced”. The “effect on HBsAg secretion in supernatant” value in experiment [1] (HBV infected HepaRG) is “inhibit; also recorded: strong and dose dependent inhibitory effect; also recorded: dose dependent and strong inhibitory effect”. In experiment [1] (at 10 μM, HBV infected HepaRG), the “inhibition of HBsAg secretion” value is “around 70%”. In addition, the “expression of HBc in infected cells” value in experiment [2] is “drastically reduce; also recorded: strongly inhibited”. Besides, the “HBeAg secretion, FXR agonist treatment of cells infected in presence of cyclosporin A” value in experiment [3] (setting [10]) is on record as “further reduced”. Also, the “effect on HBeAg secretion in supernatant” value in experiment [3] is “inhibit; also recorded: dose dependent and strong inhibitory effect”. In addition, the “FXR mRNA expression” value in [6] was “inhibit; also recorded: strongly repressed”. Besides, the “expression of HBV pregenomic/precore mRNA” value in experiment [7] is “inhibit”. Moreover, the “APOA1 mRNA expression” value in experiment [8] was “decreased”. Further, in experiment [9], the “SHP mRNA expression” value is “increased”. Besides, the “effect on secretion of HBV DNA” value in experiment [4] was “inhibit”.

Turning to `O=C(O)c1cc2c(Br)c(N3CCC(NS(=O)(=O)c4c(Cl)cccc4Cl)CC3)ccc2o1` [PXL0743, 4-Bromo-5-[4-(2,6-dichloro-benzenesulfonylamino)-piperidin-1-yl]-benzofuran-2-carboxylic acid], the “classification” value in experiment [5] is listed as “Partial agonists”. The “effect on HBsAg secretion in supernatant” value in [1] (HBV infected HepaRG) is given as “intermediate profile of inhibition”.

As for `O=C(O)c1cc2c(Cl)c(N3CCN(S(=O)(=O)c4c(Cl)cccc4Cl)CC3)ccc2o1` [PXL007], in experiment [1] (HBV infected HepaRG), the “effect on HBsAg secretion in supernatant” value is recorded as “represses; also recorded: strongly inhibited”. Further, in [3], the “effect on HBeAg secretion in supernatant” value is given as “represses; also recorded: strongly inhibited”. For the same molecule, the “effect on secretion of HBV DNA” value in [4] is “represses; also recorded: strongly inhibited”.

As to `Nc1ccn([C@@H]2CS[C@H](CO)O2)c(=O)n1` [lamivudine], in experiment [4] (at 10 μM), the “reduction of viral DNA secreted in supernatant” value is 97%.
